Test results as given in BindingDB's records for doi:10.1021/np500581m (Institute of Microbial Chemistry (Bikaken), 2015).

Test: Induction of p53-dependent growth suppression of human LNZTA3 cells after 72 hrs by MTT assay

| IC50 [µM] | SMILES |
| --- | --- |
| 6.2 | CCCCC[C@H](O[C@@H]1O[C@@H]([C@H](O)CO)[C@H](O)[C@H]1O)c1c(O)cc2c(c1O)C(=O)c1c(O)cc(O)cc1C2=O |
| 6.2 | CCCCC[C@H](O[C@@H]1O[C@@H]([C@H](O)CO)[C@H](O)[C@H]1OC(C)=O)c1c(O)cc2c(c1O)C(=O)c1c(O)cc(O)cc1C2=O |
